Assay results taken from patent US20090074824A1, “STABLE NANOCAPSULE SYSTEMS FOR THE ADMINISTRATION OF ACTIVE MOLECULES” (priority 2006, published 2009).
Converted amounts (≈) assume the structure as drawn.

Assay: physchem

solubility: 5 µg/mL (≈ 10.5 µM)
Structure (SMILES): CCCCC(=O)O[C@]1(C(=O)CO)[C@@H](C)C[C@H]2[C@@H]3CCC4=CC(=O)C=C[C@]4(C)[C@@]3(F)[C@@H](O)C[C@@]21C [betamethasone valerate, Betamethasone valerate]
